Test results from patent publication US11878965B2, “Inhibitors of peptidylarginine deiminases” (Gilead Sciences, Inc., priority 2020, dated 2024).

Biological target: human PAD4 (Homo sapiens (Human), UniProt Q9UM07)
Test: In Vitro PAD4 BAEE Biochemical Assay
Conditions: human PAD4, BAEE substrate; 5 nM PAD4, 2 mM calcium chloride, 3 mM BAEE; geometric mean of multiple experiments
In short: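 Recombinant human PAD4 (His-SUMO tag removed, E. coli-expressed), 5 nM, preincubated with compound and 2 mM CaCl2 30 min at 25 °C in MOPS pH 7.6 with DTT; 3 mM BAEE added for 2 h at 25 °C, EDTA stop. Released ammonia detected by o-phthalaldehyde/DTT fluorescence (ex 405, em 535 nm).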

human PAD4, sequence (Q9UM07 2-663): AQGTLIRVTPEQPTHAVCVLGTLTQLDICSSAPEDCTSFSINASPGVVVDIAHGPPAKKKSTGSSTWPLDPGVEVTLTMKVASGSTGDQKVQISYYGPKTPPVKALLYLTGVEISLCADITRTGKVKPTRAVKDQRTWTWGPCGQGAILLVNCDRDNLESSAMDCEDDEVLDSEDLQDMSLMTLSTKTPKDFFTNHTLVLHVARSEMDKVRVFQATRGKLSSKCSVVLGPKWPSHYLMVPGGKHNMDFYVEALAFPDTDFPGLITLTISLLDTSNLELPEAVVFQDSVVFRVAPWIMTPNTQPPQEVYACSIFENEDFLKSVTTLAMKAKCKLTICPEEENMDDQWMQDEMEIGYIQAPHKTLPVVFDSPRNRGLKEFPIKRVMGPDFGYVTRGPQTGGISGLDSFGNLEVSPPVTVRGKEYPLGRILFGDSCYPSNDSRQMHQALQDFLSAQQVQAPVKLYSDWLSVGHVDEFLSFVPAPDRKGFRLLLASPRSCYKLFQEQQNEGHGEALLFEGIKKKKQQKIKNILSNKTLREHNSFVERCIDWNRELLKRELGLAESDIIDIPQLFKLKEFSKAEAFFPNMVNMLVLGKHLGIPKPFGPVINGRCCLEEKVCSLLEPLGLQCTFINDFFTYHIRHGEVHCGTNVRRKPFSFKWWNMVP

Compound	IC50
COc1cc(C(=O)N2[C@H]3CC[C@@H]2[C@H](N)C3)cc2nc(-c3cc4ccc([C@@H](C)NC(=O)C5(OC)CC5)cc4n3CC3CC3)n(C3CC3)c12 [Example 147, N-((R)-1-(2-(5-((1R,2R,4S)-2-amino-7-azabicyclo[2.2.1]heptane-7-carbonyl)-1-cyclopropyl-7-methoxy-1H-benzo[d]imidazol-2-yl)-1-(cyclopropylmethyl)-1H-indol-6-yl)ethyl)-1-methoxycyclopropane-1-carboxamide]	0.0789 µM
COc1cc(C(=O)N2[C@H]3CC[C@@H]2[C@H](N)C3)cc2nc(-c3cc4ccc([C@@H](C)NC(=O)c5c(F)cccc5F)cc4n3CC3CC3)n(C3CC3)c12 [Example 148, N-((R)-1-(2-(5-((1R,2R,4S)-2-amino-7-azabicyclo[2.2.1]heptane-7-carbonyl)-1-cyclopropyl-7-methoxy-1H-benzo[d]imidazol-2-yl)-1-(cyclopropylmethyl)-1H-indol-6-yl)ethyl)-2,6-difluorobenzamide]	0.123 µM
COc1cccc(F)c1C(=O)N[C@H](C)c1ccc2cc(-c3nc4cc(C(=O)N5[C@H]6CC[C@@H]5[C@H](N)C6)cc(OC)c4n3C3CC3)n(CC3CC3)c2c1 [Example 149, N-((R)-1-(2-(5-((1R,2R,4S)-2-amino-7-azabicyclo[2.2.1]heptane-7-carbonyl)-1-cyclopropyl-7-methoxy-1H-benzo[d]imidazol-2-yl)-1-(cyclopropylmethyl)-1H-indol-6-yl)ethyl)-2-fluoro-6-methoxybenzamide]	0.0954 µM
COc1cc(C(=O)N2CCC[C@@H](N)C2)cc2nc(-c3cc4cc(F)c([C@@H](C)NC(=O)c5cnn(C)c5)cc4n3CC3CC3)n(C)c12 [Example 150, N-((R)-1-(2-(5-((R)-3-aminopiperidine-1-carbonyl)-7-methoxy-1-methyl-1H-benzo[d]imidazol-2-yl)-1-(cyclopropylmethyl)-5-fluoro-1H-indol-6-yl)ethyl)-1-methyl-1H-pyrazole-4-carboxamide]	0.116 µM
COc1cc(C(=O)N2CCC[C@@H](N)C2)cc2nc(-c3cc4cc(F)c([C@@H](C)NC(=O)c5cnn(C(F)F)c5)cc4n3CC3CC3)n(C)c12 [Example 151, N-((R)-1-(2-(5-((R)-3-aminopiperidine-1-carbonyl)-7-methoxy-1-methyl-1H-benzo[d]imidazol-2-yl)-1-(cyclopropylmethyl)-5-fluoro-1H-indol-6-yl)ethyl)-1-(difluoromethyl)-1H-pyrazole-4-carboxamide]	0.102 µM
COc1cc(C(=O)N2[C@H]3CC[C@@H]2[C@H](N)C3)cc2nc(-c3cc4ccc([C@@H](C)NC(=O)C5CC5(F)F)cc4n3CC3CC3)n(C3CC3)c12 (stereo partly drawn) [Example 152, N-((R)-1-(2-(5-((1R,2R,4S)-2-amino-7-azabicyclo[2.2.1]heptane-7-carbonyl)-1-cyclopropyl-7-methoxy-1H-benzo[d]imidazol-2-yl)-1-(cyclopropylmethyl)-1H-indol-6-yl)ethyl)-2,2-difluorocyclopropane-1-carboxamide]	0.063 µM
COc1cc(C(=O)N2CCC[C@@H](N)C2)cc2nc(-c3cc4ccc([C@@H](C)NC(=O)C5CC5(F)F)cc4n3CC3CC3)n(C3CC3)c12 (stereo partly drawn) [Example 153, N-((R)-1-(2-(5-((R)-3-aminopiperidine-1-carbonyl)-1-cyclopropyl-7-methoxy-1H-benzo[d]imidazol-2-yl)-1-(cyclopropylmethyl)-1H-indol-6-yl)ethyl)-2,2-difluorocyclopropane-1-carboxamide]	0.102 µM
COc1cc(C(=O)N2C[C@H](N)CCN2C)cc2nc(-c3cc4ccc([C@@H](C)NC(=O)c5ccccc5)nc4n3CC3CC3)n(C)c12 [Example 154, N-((R)-1-(2-(5-((R)-5-amino-2-methylhexahydropyridazine-1-carbonyl)-7-methoxy-1-methyl-1H-benzo[d]imidazol-2-yl)-1-(cyclopropylmethyl)-1H-pyrrolo[2,3-b]pyridin-6-yl)ethyl)benzamide]	0.0897 µM
COc1cc(C(=O)N2C[C@H](N)CCN2C)cc2nc(-c3cc4ccc([C@@H](C)NC(=O)c5ccc(F)cc5)nc4n3CC3CC3)n(C)c12 [Example 155, N-((R)-1-(2-(5-((R)-5-amino-2-methylhexahydropyridazine-1-carbonyl)-7-methoxy-1-methyl-1H-benzo[d]imidazol-2-yl)-1-(cyclopropylmethyl)-1H-pyrrolo[2,3-b]pyridin-6-yl)ethyl)-4-fluorobenzamide]	0.165 µM
COc1cc(C(=O)N2C[C@H](N)CCN2C)cc2nc(-c3cc4ccc([C@@H](C)NC(=O)c5cc(F)cc(F)c5)nc4n3CC3CC3)n(C)c12 [Example 156, N-((R)-1-(2-(5-((R)-5-amino-2-methylhexahydropyridazine-1-carbonyl)-7-methoxy-1-methyl-1H-benzo[d]imidazol-2-yl)-1-(cyclopropylmethyl)-1H-pyrrolo[2,3-b]pyridin-6-yl)ethyl)-3,5-difluorobenzamide]	0.166 µM
COc1cc(C(=O)N2C[C@H](N)CCN2C)cc2nc(-c3cc4ccc([C@@H](C)NC(=O)c5c(F)cc(F)cc5F)nc4n3CC3CC3)n(C)c12 [Example 157, N-((R)-1-(2-(5-((R)-5-amino-2-methylhexahydropyridazine-1-carbonyl)-7-methoxy-1-methyl-1H-benzo[d]imidazol-2-yl)-1-(cyclopropylmethyl)-1H-pyrrolo[2,3-b]pyridin-6-yl)ethyl)-2,4,6-trifluorobenzamide]	0.0874 µM
COc1cc(C(=O)N2C[C@H](N)CCN2C)cc2nc(-c3cc4ccc([C@@H](C)NC(=O)Cc5ccccc5)nc4n3CC3CC3)n(C)c12 [Example 158, N-((R)-1-(2-(5-((R)-5-amino-2-methylhexahydropyridazine-1-carbonyl)-7-methoxy-1-methyl-1H-benzo[d]imidazol-2-yl)-1-(cyclopropylmethyl)-1H-pyrrolo[2,3-b]pyridin-6-yl)ethyl)-2-phenylacetamide]	0.0762 µM
COc1cc(C(=O)N2C[C@H](N)CCN2C)cc2nc(-c3cc4ccc([C@@H](C)NC(=O)C(C)(C)c5ccccc5)nc4n3CC3CC3)n(C)c12 [Example 159, N-((R)-1-(2-(5-((R)-5-amino-2-methylhexahydropyridazine-1-carbonyl)-7-methoxy-1-methyl-1H-benzo[d]imidazol-2-yl)-1-(cyclopropylmethyl)-1H-pyrrolo[2,3-b]pyridin-6-yl)ethyl)-2-methyl-2-phenylpropanamide]	0.229 µM
COc1cc(C(=O)N2C[C@H](N)CCN2C)cc2nc(-c3cc4ccc([C@@H](C)NC(=O)C5(c6ccccc6)CC5)nc4n3CC3CC3)n(C)c12 [Example 160, N-((R)-1-(2-(5-((R)-5-amino-2-methylhexahydropyridazine-1-carbonyl)-7-methoxy-1-methyl-1H-benzo[d]imidazol-2-yl)-1-(cyclopropylmethyl)-1H-pyrrolo[2,3-b]pyridin-6-yl)ethyl)-1-phenylcyclopropane-1-carboxamide]	0.481 µM
COc1cc(C(=O)N2C[C@H](N)CCN2C)cc2nc(-c3cc4ccc([C@@H](C)NC(=O)C(C)(C)C)nc4n3CC3CC3)n(C)c12 [Example 161, N-((R)-1-(2-(5-((R)-5-amino-2-methylhexahydropyridazine-1-carbonyl)-7-methoxy-1-methyl-1H-benzo[d]imidazol-2-yl)-1-(cyclopropylmethyl)-1H-pyrrolo[2,3-b]pyridin-6-yl)ethyl)pivalamide]	0.0723 µM
